From US4885310A, “Anti-fungal methods and agent” (Kern; Gerald N., priority 1985, dated 1989)

Columns and labels:
[1] = system: mycoses; conditions: cited from earlier work
[2] = system: MA-104; test: Cytotoxicity of docusate sodium in solutions free of serum, MA-104; format: cell-based, monkey; parameters: key: 0: Cells had normal morphology; 4+: > 90% of cells showed CTE; conditions: 24 h, 37° C.
Experimental: (§1) The cell lines used to evaluate cytotoxicity of docusate sodium were MA-104 derived from monkey kidneys, HeLa derived from human uterine carcinoma and primary fibroblasts from human foreskin. The cells were grown to confluency in 60×15 mm dishes. The cell monolayers were washed free of growth medium and 5 ml of serum-less growth medium containing docusate sodium at various concentrations was added. The cultures were incubated 24 hours at 37° C. and the cells then examined microscopically for cytotoxic effects (CTE). Controls were done in the same manner except that they were not exposed to docusate sodium.
(§2) Table 1 lists the cytotoxicity of docusate sodium with regard to selected cell lines in cell culture.

[3] = system: HeLa; test: Cytotoxicity of docusate sodium in solutions free of serum, HeLa; format: cell-based, human; parameters: key: 0: Cells had normal morphology; 4+: > 90% of cells showed CTE; conditions: 24 h, 37° C.
Experimental: as §1, §2

[4] = system: MA-104; test: Cytotoxicity of docusate sodium in solutions containing serum, MA-104; format: cell-based, monkey; parameters: key to cytotoxic effect (CTE): 0: Cells have normal morphology; 4+: > 90% of cells showed CTE.; ±c: less than 10% of cells showed CTE; conditions: for cytotoxic effect (CTE): 24 h, MA-104
Experimental: as §1
(§3) The same procedure that was used for Example 8 was used for this example except that the medium used for growing the cells contained 2% by volume fetal calf serum.
(§4) Table 2 lists the cytotoxic effect of docusate sodium at various concentrations in selected cell lines in the cell cultures of this Example.

[5] = system: primary fibroblasts from human foreskin; test: Cytotoxicity of docusate sodium in solutions free of serum, foreskin fibroblasts; format: cell-based; parameters: key: 0: Cells had normal morphology; 4+: > 90% of cells showed CTE; conditions: 24 h, 37° C.
Experimental: as §1, §2

[6] = use as food additive and stool softening agent; cited from earlier work
[7] = system: Scopulariopsis; test: Inhibition of fungal growth on potato dextrose agar plates, Scopulariopsis; format: cell-based
Experimental: (§5) FIG. 1 is a photograph of fungal cultures of Scopulariopsis, Penicillium and Aspergillus treated with various concentrations of docusate sodium from 0 concentration (the control) to 2.0 mg/ml and incubated for five days at room temperature. The nature of fungal growth required that a different experimental approach from that of Example 10 be used to determine the growth inhibition effects of docusate sodium on fungi. For these experiments potato dextrose agar plates containing different concentrations of docusate sodium were inoculated in the center of the agar with Scopulariopsis, Penicillium and Aspergillus. The cultures were then sealed with […] brand film and incubated at room temperature for five days. Since growth could not be measured by absorbance visual comparisons were made. […] Similar tests were conducted with Mucor.

[8] = system: foreskin fibroblast cells; test: Cytotoxicity of docusate sodium in solutions containing serum, foreskin fibroblasts; format: cell-based, human; parameters: key: 0: Cells have normal morphology; 4+: > 90% of cells showed CTE.; ±c: less than 10% of cells showed CTE; conditions: 2% fetal calf serum, 24 h
Experimental: as §1, §3, §4

[9] = system: Mucor; test: Inhibition of fungal growth, Mucor; format: cell-based; conditions: all concentrations tested
Experimental: The nature of fungal growth required that a different experimental approach from that of Example 10 be used to determine the growth inhibition effects of docusate sodium on fungi. For these experiments potato dextrose agar plates containing different concentrations of docusate sodium were inoculated in the center of the agar with Scopulariopsis, Penicillium and Aspergillus. The cultures were then sealed with PARAFILM brand film and incubated at room temperature for five days. Since growth could not be measured by absorbance visual comparisons were made. […] The results to date indicate that docusate sodium is fungistatic. […] Similar tests were conducted with Mucor.

[10] = system: Aspergillus; test: Inhibition of fungal growth on potato dextrose agar plates, Aspergillus; format: cell-based
Experimental: as §5

[11] = system: HeLa; test: Cytotoxicity of docusate sodium in solutions containing serum, HeLa; format: cell-based, human; parameters: key: 0: Cells have normal morphology; 4+: > 90% of cells showed CTE.; ±c: less than 10% of cells showed CTE; conditions: 2% fetal calf serum, 24 h
Experimental: as §1, §3, §4

[12] = system: Candida albicans; test: Inhibition of the growth of Candida albicans in broth culture; format: cell-based; conditions: TSB, 30° C.
Experimental: Candida albicans is a yeast and is the causative agent of thrush in humans and is a cause of vaginal infections, urinary tract infections, and infections at other body sites. The growth inhibition effects of docusate sodium on C. albicans are determined in broth culture using trypticase soy broth (TSB) which is a medium which supports growth of a wide variety of microorganisms. TSB was sterilized by autoclaving and filter sterilized docusate sodium in distilled water was added to the sterile TSB at the concentrations shown in Table 3. The cultures were inoculated and incubated at 30° C. for 72 hours. Growth in the cultures was checked at 24 hour intervals.

[13] = cited from earlier work
[14] = system: Penicillium; test: Inhibition of fungal growth on potato dextrose agar plates, Penicillium; format: cell-based
Experimental: as §5

For `C[C@@H]1[C@H](O)[C@@H](C)/C=C/C=C/C=C/C=C/C=C/C=C/C=C/[C@H](O[C@@H]2O[C@H](C)[C@@H](O)[C@H](N)[C@@H]2O)C[C@@H]2O[C@](O)(C[C@@H](O)C[C@@H](O)[C@H](O)CC[C@@H](O)C[C@@H](O)CC(=O)O[C@H]1C)C[C@H](O)[C@H]2C(=O)O` [amphotericin B], the toxicity ([1]; in vivo) is listed as “often exhibits some toxicity”, the “effectiveness against superficial and cutaneous mycoses” value ([1]; superficial and cutaneous mycoses) is listed as “not effective for the treatment of superficial and cutaneous mycoses” and the “effectiveness against systemic mycoses” value ([1]; systemic mycoses) is listed as “effective for the treatment of many, but not all, systemic mycoses”.
For `CCCCC(CC)COC(=O)CC(C(=O)OCC(CC)CCCC)S(=O)(=O)O` (centres unmarked) [docusate sodium, 1,4 bis(2-ethylhexyl) sodium sulfosuccinate], the “toxicity (CTE)” value ([2]; 0.01 mg/ml) was 0, the “toxicity (CTE)” value ([2]; 0.05 mg/ml) was 4+ (> 90% of cells showed CTE.) and the “toxicity (CTE)” value ([2]; 0.1 mg/ml) was 4+ (> 90% of cells showed CTE.). For the same molecule, the “toxicity (CTE)” value ([2]; 0.2 mg/ml) was 4+ (> 90% of cells showed CTE.), the “toxicity (CTE)” value ([3]; 0.01 mg/ml) was 0 and the “toxicity (CTE)” value ([3]; 0.05 mg/ml) was 4+ (> 90% of cells showed CTE.). The “toxicity (CTE)” value ([3]; 0.1 mg/ml) was 4+ (> 90% of cells showed CTE.), the “toxicity (CTE)” value ([3]; 0.2 mg/ml) was 4+ (> 90% of cells showed CTE.) and the “cytotoxic effect (CTE)” value ([4]; 0.01 mg/ml, 2% fetal calf serum) was 0. For the same molecule, the “cytotoxic effect (CTE)” value ([4]; 0.02 mg/ml, 2% fetal calf serum) was 0, the “cytotoxic effect (CTE)” value ([4]; 0.03 mg/ml, 2% fetal calf serum) was 0 and the “cytotoxic effect (CTE)” value ([4]; 0.04 mg/ml, 2% fetal calf serum) was 0. For the same molecule, the “effect of serum on cytotoxicity” value ([4]; 2% fetal calf serum vs serum-free, stated for the cells of Table 2) was “presence of serum reduced the cytotoxicity”, the “relative sensitivity of MA-104 cells” value ([4]; 2% fetal calf serum, versus HeLa and foreskin fibroblast cells) was “less sensitive” and the “toxicity (CTE)” value ([5]; 0.01 mg/ml) was 0. The “toxicity (CTE)” value ([5]; 0.05 mg/ml) was 4+ (> 90% of cells showed CTE.), the “toxicity (CTE)” value ([5]; 0.1 mg/ml) was 4+ (> 90% of cells showed CTE.) and the “toxicity (CTE)” value ([5]; 0.2 mg/ml) was 4+ (> 90% of cells showed CTE.). The “systemic or local concentration on a cellular level” value [6] was “do not provide a systemic or local concentration of from about 0.01 mg to about 0.2 mg of docusate sodium per ml on a cellular level”, the “relative sensitivity of fungus” value ([7]; Scopulariopsis versus Penicillium) was “more sensitive” and the growth inhibition ([7]; all concentrations up to 2.0 mg/ml, five days, room temperature, Scopulariopsis) was “growth of fungi was inhibited at all concentrations”. The “sensitivity of growing tips of fungal mycelia (microscopic examination)” value ([7]; stated for the fungal colonies of FIG. 1) was “growing tips of the fungal mycelia (filaments) are sensitive”, the “fungistatic nature of effect” value ([7]; stated for the fungi of FIG. 1) was “fungistatic” and the “cytotoxic effect (CTE)” value ([8]; 0.01 mg/ml) was 0. The “cytotoxic effect (CTE)” value ([8]; 0.02 mg/ml) was “±c (less than 10% of cells showed CTE.)”, the “cytotoxic effect (CTE)” value ([8]; 0.03 mg/ml) was 4+ (> 90% of cells showed CTE.) and the “cytotoxic effect (CTE)” value ([8]; 0.04 mg/ml) was 4+ (> 90% of cells showed CTE.). The growth inhibition [9] was “growth was inhibited at all concentrations of docusate sodium tested”, the “relative sensitivity of fungus” value ([10]; Aspergillus versus Penicillium) was “more sensitive” and the growth inhibition ([10]; all concentrations up to 2.0 mg/ml, five days, room temperature, Aspergillus) was “growth of fungi was inhibited at all concentrations”. The “cytotoxic effect (CTE)” value ([11]; 0.02 mg/ml) was 0, the “cytotoxic effect (CTE)” value ([11]; 0.03 mg/ml) was “±c (less than 10% of cells showed CTE.)” and the “cytotoxic effect (CTE)” value ([11]; 0.04 mg/ml) was 4+ (> 90% of cells showed CTE.). For the same molecule, the “Growth recorded as absorbance at 540 nm” value ([12]; 0.06 mg/ml, 0 h) was 0.185, the “Growth recorded as absorbance at 540 nm” value ([12]; 0.06 mg/ml, 24 h) was 0.610 and the “Growth recorded as absorbance at 540 nm” value ([12]; 0.06 mg/ml, 48 h) was 1.10. For the same molecule, the “Growth recorded as absorbance at 540 nm” value ([12]; 0.06 mg/ml, 72 h) was 0.920, the “Growth recorded as absorbance at 540 nm” value ([12]; 0.12 mg/ml, 0 h) was 0.230 and the “Growth recorded as absorbance at 540 nm” value ([12]; 0.12 mg/ml, 24 h) was 0.440. For the same molecule, the “Growth recorded as absorbance at 540 nm” value ([12]; 0.12 mg/ml, 48 h) was 0.700, the “Growth recorded as absorbance at 540 nm” value ([12]; 0.12 mg/ml, 72 h) was 0.950 and the “Growth recorded as absorbance at 540 nm” value ([12]; 0.25 mg/ml, 0 h) was 0.220. For the same molecule, the “Growth recorded as absorbance at 540 nm” value ([12]; 0.25 mg/ml, 24 h) was 0.345, the “Growth recorded as absorbance at 540 nm” value ([12]; 0.25 mg/ml, 48 h) was 0.600 and the “Growth recorded as absorbance at 540 nm” value ([12]; 0.25 mg/ml, 72 h) was 0.720. The “Growth recorded as absorbance at 540 nm” value ([12]; 0.5 mg/ml, 0 h) was 0.240, the “Growth recorded as absorbance at 540 nm” value ([12]; 0.5 mg/ml, 24 h) was 0.315 and the “Growth recorded as absorbance at 540 nm” value ([12]; 0.5 mg/ml, 48 h) was 0.420. For the same molecule, the “Growth recorded as absorbance at 540 nm” value ([12]; 0.5 mg/ml, 72 h) was 0.730, the “Growth recorded as absorbance at 540 nm” value ([12]; 1.0 mg/ml, 0 h) was 0.290 and the “Growth recorded as absorbance at 540 nm” value ([12]; 1.0 mg/ml, 24 h) was 0.310. For the same molecule, the “Growth recorded as absorbance at 540 nm” value ([12]; 1.0 mg/ml, 48 h) was 0.450, the “Growth recorded as absorbance at 540 nm” value ([12]; 1.0 mg/ml, 72 h) was 0.610 and the “Growth recorded as absorbance at 540 nm” value ([12]; 2.0 mg/ml, 0 h) was 0.320. The “Growth recorded as absorbance at 540 nm” value ([12]; 2.0 mg/ml, 24 h) was 0.470, the “Growth recorded as absorbance at 540 nm” value ([12]; 2.0 mg/ml, 48 h) was 0.620 and the “Growth recorded as absorbance at 540 nm” value ([12]; 2.0 mg/ml, 72 h) was 0.780. The “solubility in organic solvents” value ([13]; organic solvents such as alcohol) was “freely soluble”, the solubility in water ([13]; water) was “slowly soluble in water to a limited extent” and the “relative sensitivity of fungus” value ([14]; Penicillium versus Aspergillus and Scopulariopsis) was “least sensitive”. For the same molecule, the growth inhibition ([14]; all concentrations up to 2.0 mg/ml, five days, room temperature, Penicillium) was “growth of fungi was inhibited at all concentrations”.
In the case of `COC1=CC(=O)C[C@@H](C)[C@]12Oc1c(Cl)c(OC)cc(OC)c1C2=O` [griseofulvin], the effectiveness against mycoses ([1]; requires prolonged administration of weeks or months) is given as “effective only for superficial and subcutaneous mycoses”.
